Measurements taken from the supplement of paper PMC10307832.

Tests used:
Assay in all cases: relative viability (nuclei count vs DMSO), 5 days (fraction); higher = more cells survive
[1] = compound: OCc1c[nH]c2ccccc12 [Indole-3-carbinol] + C[C@]1(O)C[C@@H](c2nc(-c3ccc4ccc(-c5ccccc5)nc4c3)c3c(N)nccn32)C1 [Linsitinib] (partner 1 µM)
Method in brief: (§1)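 Nuclei were stained with Hoechst during a one-step fixation (final 0.05% Triton X-100, 1% formaldehyde, 1 ug/ml Hoechst) carried out 5 days after dosing, then counted on 4× images. The cells, lung cancer lines in 1536-well plates, had been dosed by pin tool the day after seeding with one drug alone or a fixed anchor-drug dose plus five library-drug doses (not always all listed) in √10 steps. Relative viability is the nuclei count in treated wells divided by that in vehicle wells, and each value is the median of duplicate plates.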

[2] = compound: OCc1c[nH]c2ccccc12 [Indole-3-carbinol] + C[C@@H](Oc1cc(-c2cnn(C3CCNCC3)c2)cnc1N)c1c(Cl)ccc(F)c1Cl [Crizotinib] (partner 1 µM)
Method in brief: as §1

[3] = compound: OCc1c[nH]c2ccccc12 [Indole-3-carbinol] + COc1cc2c(Oc3ccc(NC(=O)C4(C(=O)Nc5ccc(F)cc5)CC4)cc3F)ccnc2cc1OCCCN1CCOCC1 [Foretinib] (partner 0.25 µM)
Method in brief: as §1

[4] = compound: OCc1c[nH]c2ccccc12 [Indole-3-carbinol] + Cc1nc(NC(=O)N2CCC[C@H]2C(N)=O)sc1-c1ccnc(C(C)(C)C(F)(F)F)c1 [Alpelisib] (partner 2 µM)
Method in brief: as §1

[5] = compound: OCc1c[nH]c2ccccc12 [Indole-3-carbinol] + CS(=O)(=O)N1CCN(Cc2cc3nc(-c4cccc5[nH]ncc45)nc(N4CCOCC4)c3s2)CC1 [Pictilisib] (partner 1 µM)
Method in brief: as §1

[6] = compound: OCc1c[nH]c2ccccc12 [Indole-3-carbinol] + CC(C)C[C@H](NC(=O)[C@H](Cc1ccccc1)NC(=O)c1cnccn1)B(O)O [Bortezomib] (partner 0.002 µM)
Method in brief: as §1

[7] = compound: OCc1c[nH]c2ccccc12 [Indole-3-carbinol] + CC1(C)CCC(c2ccc(Cl)cc2)=C(CN2CCN(c3ccc(C(=O)NS(=O)(=O)c4ccc(N[C@H](CCN5CCOCC5)CSc5ccccc5)c(S(=O)(=O)C(F)(F)F)c4)cc3)CC2)C1 [Navitoclax] (partner 0.5 µM)
Method in brief: as §1

[8] = compound: OCc1c[nH]c2ccccc12 [Indole-3-carbinol] + CS(=O)(=O)CCNCc1ccc(-c2ccc3ncnc(Nc4ccc(OCc5cccc(F)c5)c(Cl)c4)c3c2)o1 [Lapatinib] (partner 2 µM)
Method in brief: as §1

[9] = compound: OCc1c[nH]c2ccccc12 [Indole-3-carbinol] + O=C(c1cc(Cc2n[nH]c(=O)c3ccccc23)ccc1F)N1CCN(C(=O)C2CC2)CC1 [Olaparib] (partner 8 µM)
Method in brief: as §1

Indole-3-carbinol = compound: OCc1c[nH]c2ccccc12 [Indole-3-carbinol]
Method in brief: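 For viability, nuclei in each treated well were divided by nuclei in vehicle wells and the median across plates was taken. Lung cancer cell lines in 1536-well plates were pinned with five library-drug doses (not always all listed) spaced by √10, cultured 5 days without medium change, and imaged at 4× after Hoechst staining, with plates passing only at control CV below 25% and at least one doubling.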

[10] = compound: OCc1c[nH]c2ccccc12 [Indole-3-carbinol] + Cc1nc(Nc2ncc(C(=O)Nc3c(C)cccc3Cl)s2)cc(N2CCN(CCO)CC2)n1 [Dasatinib] (partner 0.075 µM)
Method in brief: as §1

[11] = compound: OCc1c[nH]c2ccccc12 [Indole-3-carbinol] + Nc1nc2[nH]cc(CCc3ccc(C(=O)N[C@@H](CCC(=O)O)C(=O)O)cc3)c2c(=O)[nH]1 [Pemetrexed] (partner 0.2 µM)
Method in brief: as §1

[12] = compound: OCc1c[nH]c2ccccc12 [Indole-3-carbinol] + CCNC(=O)c1noc(-c2cc(C(C)C)c(O)cc2O)c1-c1ccc(CN2CCOCC2)cc1 [Luminespib] (partner 0.01 µM)
Method in brief: as §1

[13] = compound: OCc1c[nH]c2ccccc12 [Indole-3-carbinol] + COc1cccc2cc(-c3nc([C@H]4CC[C@H](C(=O)O)CC4)n4ncnc(N)c34)[nH]c12 [OSI-027] (partner 0.5 µM)
Method in brief: as §1

[14] = compound: OCc1c[nH]c2ccccc12 [Indole-3-carbinol] + N=C(N)NC(=N)NCCc1ccccc1 [Phenformin] (partner 250 µM)
Method in brief: as §1

Question: What does the source list for NCI-H1299?
Answer: relative viability ([1]; first compound 0.253 µM): 0.986; relative viability ([1]; first compound 0.8 µM): 1; relative viability ([1]; first compound 2.53 µM): 1.02; relative viability ([1]; first compound 8 µM): 0.869; relative viability ([2]; first compound 0.253 µM): 0.924; relative viability ([2]; first compound 0.8 µM): 1; relative viability ([2]; first compound 2.53 µM): 0.952; relative viability ([2]; first compound 8 µM): 0.906; relative viability ([3]; first compound 0.253 µM): 1.07; relative viability ([3]; first compound 0.8 µM): 1.07; relative viability ([3]; first compound 2.53 µM): 1.14; relative viability ([3]; first compound 8 µM): 1.04; relative viability ([4]; first compound 0.253 µM): 1.05; relative viability ([4]; first compound 0.8 µM): 1.11; relative viability ([4]; first compound 2.53 µM): 1.11; relative viability ([4]; first compound 8 µM): 1.01; relative viability ([5]; first compound 0.253 µM): 0.795; relative viability ([5]; first compound 0.8 µM): 0.879; relative viability ([5]; first compound 2.53 µM): 0.691; relative viability ([5]; first compound 8 µM): 0.761; relative viability ([6]; first compound 0.253 µM): 0.977; relative viability ([6]; first compound 0.8 µM): 1.02; relative viability ([6]; first compound 2.53 µM): 1.01; relative viability ([6]; first compound 8 µM): 1.03; relative viability ([7]; first compound 0.253 µM): 1.01; relative viability ([7]; first compound 0.8 µM): 1.05; relative viability ([7]; first compound 2.53 µM): 1.03; relative viability ([7]; first compound 8 µM): 1.02; relative viability ([8]; first compound 0.253 µM): 0.892; relative viability ([8]; first compound 0.8 µM): 0.997; relative viability ([8]; first compound 2.53 µM): 0.925; relative viability ([8]; first compound 8 µM): 0.945; relative viability ([9]; first compound 0.253 µM): 0.907; relative viability ([9]; first compound 0.8 µM): 0.995; relative viability ([9]; first compound 2.53 µM): 0.954; relative viability ([9]; first compound 8 µM): 0.952; relative viability (Indole-3-carbinol; 0.253 µM): 1.02; relative viability (Indole-3-carbinol; 0.8 µM): 1.04; relative viability (Indole-3-carbinol; 2.53 µM): 0.999; relative viability (Indole-3-carbinol; 8 µM): 0.989

Question: Which relative viability ([1]; first compound 0.253 µM) does the source give for NCI-H1563 here?
Answer: 1.24

Question: What about the relative viability ([1]; first compound 0.8 µM) of the same cell line?
Answer: 1.27

Question: What about the relative viability ([1]; first compound 2.53 µM) of the same cell line?
Answer: 1.23

Question: And the relative viability ([1]; first compound 8 µM)?
Answer: 1.08

Question: And the relative viability ([10]; first compound 0.253 µM)?
Answer: 0.471

Question: And the relative viability ([10]; first compound 0.8 µM)?
Answer: 0.428

Question: And the relative viability ([10]; first compound 2.53 µM)?
Answer: 0.429

Question: And the relative viability ([10]; first compound 8 µM)?
Answer: 0.479

Question: And the relative viability ([2]; first compound 0.253 µM)?
Answer: 0.769

Question: And the relative viability ([2]; first compound 0.8 µM)?
Answer: 0.883

Question: What about the relative viability ([2]; first compound 2.53 µM) of the same cell line?
Answer: 0.866

Question: And the relative viability ([2]; first compound 8 µM)?
Answer: 0.879

Question: And the relative viability ([11]; first compound 0.253 µM)?
Answer: 0.767

Question: What about the relative viability ([11]; first compound 0.8 µM) of the same cell line?
Answer: 0.645

Question: And the relative viability ([11]; first compound 2.53 µM)?
Answer: 0.809

Question: And the relative viability ([11]; first compound 8 µM)?
Answer: 0.802

Question: And the relative viability ([3]; first compound 0.253 µM)?
Answer: 0.865

Question: And the relative viability ([3]; first compound 0.8 µM)?
Answer: 0.799

Question: And the relative viability ([3]; first compound 2.53 µM)?
Answer: 0.914

Question: And the relative viability ([3]; first compound 8 µM)?
Answer: 0.859

Question: What about the relative viability ([4]; first compound 0.253 µM) of the same cell line?
Answer: 0.905

Question: And the relative viability ([4]; first compound 0.8 µM)?
Answer: 0.997

Question: What about the relative viability ([4]; first compound 2.53 µM) of the same cell line?
Answer: 0.921

Question: What about the relative viability ([4]; first compound 8 µM) of the same cell line?
Answer: 0.885

Question: What about the relative viability ([5]; first compound 0.253 µM) of the same cell line?
Answer: 0.667

Question: And the relative viability ([5]; first compound 0.8 µM)?
Answer: 0.611

Question: What about the relative viability ([5]; first compound 2.53 µM) of the same cell line?
Answer: 0.664

Question: What about the relative viability ([5]; first compound 8 µM) of the same cell line?
Answer: 0.662

Question: And the relative viability ([12]; first compound 0.253 µM)?
Answer: 0.454

Question: What about the relative viability ([12]; first compound 0.8 µM) of the same cell line?
Answer: 0.494

Question: And the relative viability ([12]; first compound 2.53 µM)?
Answer: 0.512

Question: And the relative viability ([12]; first compound 8 µM)?
Answer: 0.495

Question: And the relative viability ([6]; first compound 0.253 µM)?
Answer: 0.951

Question: What about the relative viability ([6]; first compound 0.8 µM) of the same cell line?
Answer: 0.7

Question: What about the relative viability ([6]; first compound 2.53 µM) of the same cell line?
Answer: 0.996

Question: And the relative viability ([6]; first compound 8 µM)?
Answer: 0.774

Question: What about the relative viability ([8]; first compound 0.253 µM) of the same cell line?
Answer: 1.03

Question: What about the relative viability ([8]; first compound 0.8 µM) of the same cell line?
Answer: 0.818

Question: What about the relative viability ([8]; first compound 2.53 µM) of the same cell line?
Answer: 0.975

Question: And the relative viability ([8]; first compound 8 µM)?
Answer: 0.967

Question: And the relative viability ([13]; first compound 0.253 µM)?
Answer: 0.733

Question: And the relative viability ([13]; first compound 0.8 µM)?
Answer: 0.748

Question: And the relative viability ([13]; first compound 2.53 µM)?
Answer: 0.747

Question: What about the relative viability ([13]; first compound 8 µM) of the same cell line?
Answer: 0.791

Question: What about the relative viability ([14]; first compound 0.253 µM) of the same cell line?
Answer: 0.657

Question: What about the relative viability ([14]; first compound 0.8 µM) of the same cell line?
Answer: 0.652

Question: What about the relative viability ([14]; first compound 2.53 µM) of the same cell line?
Answer: 0.636

Question: And the relative viability ([14]; first compound 8 µM)?
Answer: 0.644

Question: And the relative viability (Indole-3-carbinol; 0.253 µM)?
Answer: 1.02

Question: And the relative viability (Indole-3-carbinol; 0.8 µM)?
Answer: 0.883

Question: What about the relative viability (Indole-3-carbinol; 2.53 µM) of the same cell line?
Answer: 1.09

Question: And the relative viability (Indole-3-carbinol; 8 µM)?
Answer: 0.908
